The text below walks through data of patent publication US20130324522A1, “INSECT ODORANT RECEPTOR ANTAGONISTS” (THE ROCKEFELLER UNIVERSITY, priority 2010, published 2013).

Holding throughout (assay type): cell-based
Assay [1] has as its target T1, serotonin receptor (5HT3) (Mus musculus, UniProt P23979).
T1 construct: Full-length cDNAs for mosquito (Anopheles gambiae) odorant receptor; expressed in transfected cells
T1 sequence (P23979 24-489): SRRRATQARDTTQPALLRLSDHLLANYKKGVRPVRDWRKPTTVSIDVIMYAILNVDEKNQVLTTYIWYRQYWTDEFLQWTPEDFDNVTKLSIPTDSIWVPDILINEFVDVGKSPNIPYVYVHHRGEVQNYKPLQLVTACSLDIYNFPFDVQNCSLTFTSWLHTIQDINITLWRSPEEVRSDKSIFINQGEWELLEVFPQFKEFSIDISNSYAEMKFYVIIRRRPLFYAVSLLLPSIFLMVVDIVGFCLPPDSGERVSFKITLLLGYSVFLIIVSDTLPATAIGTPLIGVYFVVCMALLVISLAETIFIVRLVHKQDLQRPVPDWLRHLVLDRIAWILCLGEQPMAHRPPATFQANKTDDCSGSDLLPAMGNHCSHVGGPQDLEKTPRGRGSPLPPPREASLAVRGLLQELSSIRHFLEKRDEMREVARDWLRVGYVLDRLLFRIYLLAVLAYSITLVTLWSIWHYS
Description: Ca2+-imaging of stable Flip-In T-Rex cell line 5HT3. Conditions: compound applied at 4 μM; read-out: Percent Inhibition 5HT3. An outline of the steps: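 Calcium responses were read on an FDSS6000 (485 nm excitation, 525 nm emission) after Ca-4 loading for 1.5 h at room temperature. Cells were tetracycline-induced Flp-In T-REx lines stably carrying fly Or47a/Or83b or mouse 5HT3, plated 2 days ahead; compounds were co-delivered in HBSS odorant solution.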

A further assay has as its target OR10/OR7 (Anopheles gambiae, UniProt B5U0U7+Q7QCC7). Description: Ca2+-imaging of stable HEK293T cell line OR10/OR7. The settings on record: HEK-293T; compound applied at 4 μM; read-out: Percent Inhibition OR10 OR7. An outline of the steps:
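Stable HEK293T line co-expressing OR10/OR7, plated 2 days on poly-D-lysine, loaded with Ca-4 dye 1.5 hr at room temperature. Compounds premixed into odorant in HBSS and applied on FDSS6000. Ca2+ rise followed by fluorescence at 525 nm (excitation 485 nm).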

Another assay concerns the target T2, mOREG (Mus musculus, UniProt Q920P2).
T2 sequence (Q920P2 1-313): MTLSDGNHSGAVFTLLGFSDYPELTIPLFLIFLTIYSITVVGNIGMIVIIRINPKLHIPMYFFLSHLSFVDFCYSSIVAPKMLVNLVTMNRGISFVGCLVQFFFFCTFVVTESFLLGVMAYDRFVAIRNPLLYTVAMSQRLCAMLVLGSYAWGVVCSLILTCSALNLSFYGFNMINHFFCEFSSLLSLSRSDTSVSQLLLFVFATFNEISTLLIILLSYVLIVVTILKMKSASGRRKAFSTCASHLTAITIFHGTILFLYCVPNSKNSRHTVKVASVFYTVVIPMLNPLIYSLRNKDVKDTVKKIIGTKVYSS
Description: Ca2+-imaging, control receptor mOREG. The settings on record: compound applied at 4 μM; read-out: Percent Inhibition mOREG. Summed up: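 Fluorescent Ca2+ responses (ex 485/em 525 nm) measured in real time after odorant application, with small compounds transferred into the HBSS odorant solutions beforehand. Cells were seeded on poly-D-lysine 2 days ahead and dye-loaded (Ca-4, 1.5 hr, room temperature); controls were HBSS buffer and ligand.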

Sequence of OR10/OR7 (Q7QCC7 whole entry): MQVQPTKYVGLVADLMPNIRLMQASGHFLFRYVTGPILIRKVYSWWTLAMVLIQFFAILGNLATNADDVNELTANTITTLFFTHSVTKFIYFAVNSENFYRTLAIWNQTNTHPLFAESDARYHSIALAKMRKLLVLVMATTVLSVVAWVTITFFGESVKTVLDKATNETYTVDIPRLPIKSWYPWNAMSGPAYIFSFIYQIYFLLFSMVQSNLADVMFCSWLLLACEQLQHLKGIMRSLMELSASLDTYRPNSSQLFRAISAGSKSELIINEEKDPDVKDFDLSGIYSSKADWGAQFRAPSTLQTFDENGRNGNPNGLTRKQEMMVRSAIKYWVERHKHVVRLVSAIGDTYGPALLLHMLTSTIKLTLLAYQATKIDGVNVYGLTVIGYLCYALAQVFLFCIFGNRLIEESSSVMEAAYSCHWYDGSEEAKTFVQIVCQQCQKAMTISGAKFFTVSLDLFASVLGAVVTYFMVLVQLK
Sequence of OR10/OR7 (B5U0U7 entry or part of it): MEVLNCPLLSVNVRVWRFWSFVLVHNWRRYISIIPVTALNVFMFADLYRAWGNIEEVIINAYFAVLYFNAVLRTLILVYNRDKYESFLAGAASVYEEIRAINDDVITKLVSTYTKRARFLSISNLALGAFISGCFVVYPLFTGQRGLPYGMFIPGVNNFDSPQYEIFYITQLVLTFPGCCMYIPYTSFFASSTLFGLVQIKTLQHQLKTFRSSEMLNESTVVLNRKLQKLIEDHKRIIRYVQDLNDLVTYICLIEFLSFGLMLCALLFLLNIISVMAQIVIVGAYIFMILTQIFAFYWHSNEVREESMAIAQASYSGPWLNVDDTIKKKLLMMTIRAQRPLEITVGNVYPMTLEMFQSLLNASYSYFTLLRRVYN

`CCCCc1nc(CN2CCc3c([nH]c4ccccc34)C2c2cccc(OC)c2OC)c[nH]1` (stereo not drawn) [RU-0031879]: the values for the inhibition at 4 µM (in assay [1]; at OR10/OR7; on mOREG) were less than 25%, less than 25% and 26 to 50%, respectively.

`O=C1CN(S(=O)(=O)c2c(F)cc(F)cc2F)CC2c3cccc(F)c3CCN12` (stereo not drawn) [RU-0076832]: the inhibition at 4 µM (in assay [1]; at OR10/OR7; on mOREG) was 26 to 50% in each case.

Regarding `Cc1ccc(-n2nc(C)c(CCC(=O)N3CCc4ccccc4C3)c2C)cc1Cl` [RU-0026074], the inhibition at 4 µM was less than 25% in assay [1], 26 to 50% at OR10/OR7 and less than 25% at mOREG.
